target: human RAF1 (Homo sapiens, UniProt P04049); assay: Protein kinase assay (33P-ATP filter binding), human RAF1, 10-dose IC50; format: biochemical; conditions: MEK1 (K97R) substrate 3 micromolar, ATP 10 micromolar, read-out: RAF-1 IC50
Procedure, shortened: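 Radiometric filter-binding format: 10 µM ATP, 3 µM MEK1 (K97R) as substrate for human RAF1, 2 hr at room temperature in 20 mM HEPES pH 7.5 with 10 mM MgCl2. Compounds were dispensed acoustically from DMSO. IC50 came from percent kinase activity relative to vehicle over a 10-dose series.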

human RAF1, sequence (P04049 whole entry): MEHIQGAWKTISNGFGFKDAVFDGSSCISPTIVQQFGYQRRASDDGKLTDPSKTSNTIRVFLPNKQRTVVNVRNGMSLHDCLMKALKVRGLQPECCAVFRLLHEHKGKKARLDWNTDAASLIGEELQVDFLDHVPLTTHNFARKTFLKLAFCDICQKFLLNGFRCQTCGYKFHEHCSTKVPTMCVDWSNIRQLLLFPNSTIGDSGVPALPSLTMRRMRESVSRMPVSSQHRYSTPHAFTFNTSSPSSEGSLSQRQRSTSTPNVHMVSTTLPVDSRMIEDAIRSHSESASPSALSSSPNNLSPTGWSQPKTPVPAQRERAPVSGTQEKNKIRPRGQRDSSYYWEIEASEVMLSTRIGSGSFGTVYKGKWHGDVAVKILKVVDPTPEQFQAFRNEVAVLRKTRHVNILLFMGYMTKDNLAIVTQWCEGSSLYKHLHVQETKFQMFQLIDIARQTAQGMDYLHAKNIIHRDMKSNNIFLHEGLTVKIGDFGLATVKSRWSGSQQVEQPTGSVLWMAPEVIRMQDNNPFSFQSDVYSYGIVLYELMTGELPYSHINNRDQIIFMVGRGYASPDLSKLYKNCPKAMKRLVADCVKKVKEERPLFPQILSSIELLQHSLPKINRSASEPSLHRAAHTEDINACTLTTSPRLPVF

IC50, < 10 nM:
Cc1cc(F)c(NC(=O)N2CC=C(CC(F)(F)F)C2)cc1-c1cc(OCCO)nc(N2CCOCC2)c1 [Example 96, N-[2-fluoro-5-[2-(2-hydroxyethoxy)-6-(morpholin-4-yl)pyridin-4-yl]-4-methylphenyl]-3-(2,2,2-trifluoroethyl)-2,5-dihydropyrrole-1-carboxamide]
Cc1ccc(NC(=O)N2CC[C@H](OC(C)C)C2)cc1-c1cc(OCCO)nc(N2CCOCC2)c1 [Example 138, (3S)-N-[3-[2-(2-hydroxyethoxy)-6-(morpholin-4-yl)pyridin-4-yl]-4-methylphenyl]-3-isopropoxypyrrolidine-1-carboxamide]
Cc1cc(F)c(NC(=O)N2CC[C@H](CC(F)(F)F)C2)cc1-c1cc(OCCO)nc(N2CCOCC2)c1 (single isomer, unassigned) [Example 74]
Cc1ccc(NC(=O)N(C)c2cnn(C(F)(F)F)c2)cc1-c1cc(OCCO)nc(N2CCOCC2)c1 [Example 141, 1-[3-[2-(2-hydroxyethoxy)-6-(morpholin-4-yl)pyridin-4-yl]-4-methylphenyl]-3-methyl-3-[1-(trifluoromethyl)pyrazol-4-yl]urea]
Cc1ccc(NC(=O)N2CC[C@H](OC(C)(F)F)C2)cc1-c1cc(OCCO)nc(N2CCOCC2)c1 [Example 140, (3S)-3-(1,1-difluoroethoxy)-N-[3-[2-(2-hydroxyethoxy)-6-(morpholin-4-yl)pyridin-4-yl]-4-methylphenyl]pyrrolidine-1-carboxamide]
Cc1cc(F)c(NC(=O)N2CCCC(N)(C(F)(F)F)C2)cc1-c1cc(OCCO)nc(N2CCOCC2)c1 (stereo not drawn) [Example 54, 3-amino-N-[2-fluoro-5-[2-(2-hydroxyethoxy)-6-(morpholin-4-yl)pyridin-4-yl]-4-methylphenyl]-3-(trifluoromethyl)piperiidne-1-carboxamide]
Cc1ccc(NC(=O)N2CC[C@H](OC(F)(F)F)C2)cc1-c1cc(OC[C@H](C)O)nc(N2CCOCC2)c1 [Example 150, (3S)-N-(3-[2-[(2S)-2-hydroxypropoxy]-6-(morpholin-4-yl)pyridin-4-yl]-4-methylphenyl)-3-(trifluoromethoxy)pyrrolidine-- carboxamide]
Cc1ccc(NC(=O)n2ccc(C(C)(C)C)c2)cc1-c1cc(OCCO)nc(N2CCOCC2)c1 [Example 173, 3-(tert-butyl)-N-(3-(2-(2-hydroxyethoxy)-6-morpholinopyridin-4-yl)-4-methylphenyl)-1H-pyrrole-1-carboxamide]
Cc1cc(F)c(NC(=O)N2C[C@H](C(F)(F)F)C[C@@H]2C)cc1-c1cc(OCCO)nc(N2CCOCC2)c1 (single isomer, unassigned) [Example 60, (cis)-N-[2-fluoro-5-[2-(2-hydroxyethoxy)-6-(morpholin-4-yl)pyridin-4-yl]-4-methylphenyl]-2-methyl-4-(trifluoromethyl)pyrrolidine-1-carboxamide]
Cc1ccc(NC(=O)N2CC(OC(F)(F)F)CN2)cc1-c1cc(OCCO)nc(N2CCOCC2)c1 (stereo not drawn) [Example 146, N-[3-[2-(2-hydroxyethoxy)-6-(morpholin-4-yl)pyridin-4-yl]-4-methylphenyl]-4-(trifluoromethoxy) pyrazolidine-1-carboxamide]
Cc1cc(F)c(NC(=O)N2CCS[C@H](C(F)(F)F)C2)cc1-c1cc(OCCO)nc(N2CCOCC2)c1 [Example 168, (S)-N-(2-fluoro-5-(2-(2-hydroxyethoxy)-6-morpholinopyridin-4-yl)-4-methylphenyl)-2-(trifluoromethyl)thiomorpholine-4-carboxamide]
Cc1ccc(NC(=O)N2CC[C@@H](SC(F)(F)F)C2)cc1-c1cnc(OC2CCOCC2)c(N2CCOCC2)c1 [Example 131, (3R)-N-[4-methyl-3-[5-(morpholin-4-yl)-6-(oxan-4-yloxy)pyridin-3-yl]phenyl]-3-[(trifluoromethyl)sulfanyl]pyrrolidine-1-carboxamide]

Reference: US20230081390A1, “INHIBITORS OF RAF KINASES” (Kinnate Biopharma Inc., priority 2019, published 2023)
